Experiments:
[1] = Stability of cannabinoid entourage and Vitamin E components of the powder concentrate by LCMSMS; format: physicochemical; conditions: powder stored at 21-25° C.
Protocol: At each time period, 0.05 g of powder was dissolved in 10 ml-15 of ethanol, diluted to fall within the analytical range, and injected into the LCMSMS for analysis.

[2] = Stability of cannabinoid compounds and Vitamin E components in Beverage 2 (AB Red) by LCMSMS; format: physicochemical; conditions: stored at 8° C.

SMILES: CCCCCc1cc(O)c2c(c1)OC(C)(C)c1ccc(C)cc1-2 [CBN, cannabinol]
- Stability of Plant-Derived Cannabinoid Compounds in Powder Concentrate ([1]; 0 days): 0.480 mg/g powder
- Stability of Plant-Derived Cannabinoid Compounds in Powder Concentrate ([1]; 1 days): 0.471 mg/g powder
- Stability of Plant-Derived Cannabinoid Compounds in Powder Concentrate ([1]; 2 days): 0.488 mg/g powder
- Stability of Plant-Derived Cannabinoid Compounds in Powder Concentrate ([1]; 3 days): 0.474 mg/g powder
- Stability of Plant-Derived Cannabinoid Compounds in Powder Concentrate ([1]; 5 days): 0.491 mg/g powder
- Stability of Plant-Derived Cannabinoid Compounds in Powder Concentrate ([1]; 8 days): 0.469 mg/g powder
- Stability of Plant-Derived Cannabinoid Compounds in Powder Concentrate ([1]; 9 days): 0.466 mg/g powder
- Stability of Plant-Derived Cannabinoid Compounds in Powder Concentrate ([1]; 10 days): 0.499 mg/g powder
- Stability of Plant-Derived Cannabinoid Compounds in Powder Concentrate ([1]; 11 days): 0.494 mg/g powder
- Stability of Plant-Derived Cannabinoid Compounds in Powder Concentrate ([1]; 12 days): 0.496 mg/g powder
- Stability of Plant-Derived Cannabinoid Compounds in Powder Concentrate ([1]; 15 days): 0.472 mg/g powder
- Stability of Plant-Derived Cannabinoid Compounds in Powder Concentrate ([1]; 16 days): 0.483 mg/g powder
- Stability of Plant-Derived Cannabinoid Compounds in Powder Concentrate ([1]; 17 days): 0.465 mg/g powder
- Stability of Plant-Derived Cannabinoid Compounds in Powder Concentrate ([1]; 18 days): 0.470 mg/g powder
- Stability of Plant-Derived Cannabinoid Compounds in Powder Concentrate ([1]; 19 days): 0.490 mg/g powder
- Stability of Plant-Derived Cannabinoid Compounds in Powder Concentrate ([1]; 22 days): 0.486 mg/g powder
- Stability of Plant-Derived Cannabinoid Compounds in Powder Concentrate ([1]; 23 days): 0.469 mg/g powder
- Stability of Plant-Derived Cannabinoid Compounds in Powder Concentrate ([1]; 24 days): 0.465 mg/g powder
- Stability of Plant-Derived Cannabinoid Compounds in Powder Concentrate ([1]; 25 days): 0.486 mg/g powder
- Stability of Plant-Derived Cannabinoid Compounds in Powder Concentrate ([1]; 26 days): 0.486 mg/g powder
- Stability of Plant-Derived Cannabinoid Compounds in Powder Concentrate ([1]; 29 days): 0.484 mg/g powder
- Stability of Plant-Derived Cannabinoid Compounds in Powder Concentrate ([1]; 30 days): 0.476 mg/g powder
- Stability of Plant-Derived Cannabinoid Compounds in Powder Concentrate ([1]; 60 days): 0.489 mg/g powder
- Stability of Plant-Derived Cannabinoid Compounds in Powder Concentrate ([1]; 90 days): 0.483 mg/g powder
- Stability of Plant-Derived Cannabinoid Compounds in Powder Concentrate ([1]; 120 days): 0.498 mg/g powder
- Stability of Plant-Derived Cannabinoid Compounds in Powder Concentrate ([1]; 150 days): 0.500 mg/g powder
- Stability of Plant-Derived Cannabinoid Compounds in Powder Concentrate ([1]; 180 days): 0.464 mg/g powder
- Stability of Plant-Derived Cannabinoid Compounds in Powder Concentrate ([1]; 210 days): 0.501 mg/g powder
- Stability of Plant-Derived Cannabinoid Compounds in Powder Concentrate ([1]; 240 days): 0.467 mg/g powder
- Stability of Plant-Derived Cannabinoid Compounds in Powder Concentrate ([1]; 270 days): 0.464 mg/g powder
- Stability of Plant-Derived Cannabinoid Compounds in Powder Concentrate ([1]; 300 days): 0.469 mg/g powder
- Stability of Plant-Derived Cannabinoid Compounds in Powder Concentrate ([1]; 330 days): 0.502 mg/g powder
- Stability of Plant-Derived Cannabinoid Compounds in Powder Concentrate ([1]; 360 days): 0.499 mg/g powder
- Stability of Plant-Derived Cannabinoid Compounds in Powder Concentrate ([1]; 390 days): 0.479 mg/g powder
- Stability of Plant-Derived Cannabinoid Compounds in Powder Concentrate ([1]; 420 days): 0.481 mg/g powder
- Stability of Plant-Derived Cannabinoid Compounds in Powder Concentrate ([1]; 450 days): 0.480 mg/g powder
- Stability of Plant-Derived Cannabinoid Compounds in Powder Concentrate ([1]; 480 days): 0.485 mg/g powder
- Stability of Plant-Derived Cannabinoid Compounds in Powder Concentrate ([1]; 510 days): 0.499 mg/g powder
- Stability of Plant-Derived Cannabinoid Compounds in Powder Concentrate ([1]; 540 days): 0.492 mg/g powder
- Stability of Plant-Derived Cannabinoid Compounds in Powder Concentrate ([1]; 570 days): 0.471 mg/g powder
- Stability of Plant-Derived Cannabinoid Compounds in AB Red ([2]; 0 days): 2.81 µg/mL
- Stability of Plant-Derived Cannabinoid Compounds in AB Red ([2]; 1 days): 2.82 µg/mL
- Stability of Plant-Derived Cannabinoid Compounds in AB Red ([2]; 2 days): 2.74 µg/mL
- Stability of Plant-Derived Cannabinoid Compounds in AB Red ([2]; 3 days): 2.83 µg/mL
- Stability of Plant-Derived Cannabinoid Compounds in AB Red ([2]; 5 days): 2.78 µg/mL
- Stability of Plant-Derived Cannabinoid Compounds in AB Red ([2]; 8 days): 2.80 µg/mL
- Stability of Plant-Derived Cannabinoid Compounds in AB Red ([2]; 9 days): 2.74 µg/mL
- Stability of Plant-Derived Cannabinoid Compounds in AB Red ([2]; 10 days): 2.79 µg/mL
- Stability of Plant-Derived Cannabinoid Compounds in AB Red ([2]; 11 days): 2.73 µg/mL
- Stability of Plant-Derived Cannabinoid Compounds in AB Red ([2]; 12 days): 2.76 µg/mL
- Stability of Plant-Derived Cannabinoid Compounds in AB Red ([2]; 15 days): 2.77 µg/mL
- Stability of Plant-Derived Cannabinoid Compounds in AB Red ([2]; 16 days): 2.83 µg/mL
- Stability of Plant-Derived Cannabinoid Compounds in AB Red ([2]; 17 days): 2.80 µg/mL
- Stability of Plant-Derived Cannabinoid Compounds in AB Red ([2]; 18 days): 2.78 µg/mL
- Stability of Plant-Derived Cannabinoid Compounds in AB Red ([2]; 19 days): 2.78 µg/mL
- Stability of Plant-Derived Cannabinoid Compounds in AB Red ([2]; 22 days): 2.73 µg/mL
- Stability of Plant-Derived Cannabinoid Compounds in AB Red ([2]; 23 days): 2.79 µg/mL
- Stability of Plant-Derived Cannabinoid Compounds in AB Red ([2]; 24 days): 2.76 µg/mL
- Stability of Plant-Derived Cannabinoid Compounds in AB Red ([2]; 25 days): 2.83 µg/mL
- Stability of Plant-Derived Cannabinoid Compounds in AB Red ([2]; 26 days): 2.79 µg/mL

Source: patent US20260130395A1, “Water Dispersible Botanical Compositions” (Aquila Black Limited, priority 2021, published 2026)
